From patent US20240228572A1 (i2o Therapeutics, Inc., priority 2020, published 2024)
*1 amine or outer side, *2 acyl side, *3 side chain or, on linkers, in order; H or OH if unused. Where a SMILES comes first, the peptide text is derived from it. Bridges are numbered along the chain shown (N, C = ends). Side-chain parts run from the residue outwards. The star is where a group is joined. C20 diacid = O=C(O)CCCCCCCCCCCCCCCCCCC(=O)*; γGlu = O=C(O)[C@H](CCC(=O)[*:2])N[*:1]; AEEA = NCCOCCOCC(=O)O

Experiments:
[1] = molecular target: T1, human Glucagon receptor (GCGR) (Homo sapiens, UniProt P47871); assay: cAMP accumulation assay, CHO-K1 cells expressing human GCGR; assay type: cell-based; conditions: mean pEC50, Table 10
T1 construct: A cDNA fragment encoding the full-length open reading frame of the human GCGR; expressed in transfected cells; host or cells: CHO-K1, pcDNA3.1+, Lipofectamine 2000
T1 sequence (P47871 26-477): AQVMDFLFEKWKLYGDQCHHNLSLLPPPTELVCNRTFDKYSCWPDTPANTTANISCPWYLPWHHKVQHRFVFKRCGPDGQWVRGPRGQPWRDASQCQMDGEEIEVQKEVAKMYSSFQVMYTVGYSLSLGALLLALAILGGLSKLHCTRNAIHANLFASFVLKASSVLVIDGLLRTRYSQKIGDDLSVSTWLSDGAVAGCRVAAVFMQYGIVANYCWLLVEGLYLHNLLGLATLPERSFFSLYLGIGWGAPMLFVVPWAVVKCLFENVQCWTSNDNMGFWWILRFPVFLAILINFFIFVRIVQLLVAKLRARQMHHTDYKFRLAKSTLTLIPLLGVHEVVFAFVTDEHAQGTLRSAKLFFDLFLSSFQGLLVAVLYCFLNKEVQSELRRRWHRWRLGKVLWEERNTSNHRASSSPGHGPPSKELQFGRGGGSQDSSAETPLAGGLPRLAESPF

[2] = molecular target: T2, human GLP-1 receptor (GLP-1R) (Homo sapiens, UniProt P43220); assay: cAMP accumulation assay, CHO-K1 cells stably expressing human GLP-1R; assay type: cell-based; conditions: cAMP accumulation, mean pEC50, Table 10
T2 construct: expressed in transfected cells
T2 sequence (P43220 24-463): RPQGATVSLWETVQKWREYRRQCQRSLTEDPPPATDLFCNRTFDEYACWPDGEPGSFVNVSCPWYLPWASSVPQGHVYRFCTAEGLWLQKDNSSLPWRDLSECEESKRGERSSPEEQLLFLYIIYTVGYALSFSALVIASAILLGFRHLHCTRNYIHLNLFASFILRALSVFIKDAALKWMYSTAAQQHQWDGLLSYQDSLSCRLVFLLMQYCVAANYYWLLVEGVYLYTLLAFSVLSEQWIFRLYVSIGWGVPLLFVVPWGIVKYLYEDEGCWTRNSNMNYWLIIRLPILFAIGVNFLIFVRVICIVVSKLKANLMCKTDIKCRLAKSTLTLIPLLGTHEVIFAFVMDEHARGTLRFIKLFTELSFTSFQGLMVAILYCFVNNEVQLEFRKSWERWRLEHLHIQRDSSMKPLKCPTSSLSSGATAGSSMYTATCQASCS

[3] = cited from earlier work

| Molecule | EC50 [1] [pM] | EC50 [2] [pM] | half-life in serum [3] |
| --- | --- | --- | --- |
| CC(C)C[C@H](NC(=O)[C@H](Cc1ccc(O)cc1)NC(=O)[C@H](CCCCN)NC(=O)[C@H](CO)NC(=O)[C@H](Cc1ccc(O)cc1)NC(=O)[C@H](CC(=O)O)NC(=O)[C@H](CO)NC(=O)[C@@H](NC(=O)[C@H](Cc1ccccc1)NC(=O)[C@@H](NC(=O)CNC(=O)[C@H](Cc1c[nH]cn1)NC(=O)[C@H](CO)NC(=O)[C@@H](N)Cc1ccc(O)cc1)[C@@H](C)O)[C@@H](C)O)C(=O)N[C@@H](CC(=O)O)C(=O)N[C@@H](CCCCNC(=O)CC[C@H](NC(=O)CC[C@H](NC(=O)COCCOCCNC(=O)CCCCCCCCCCCCCCCCCCC(=O)O)C(=O)O)C(=O)O)C(=O)N[C@@H](CCCCN)C(=O)N[C@@H](Cc1ccc(O)cc1)C(=O)N[C@@H](C)C(=O)N[C@H]1CCC(=O)NCCCC[C@@H](C(=O)N[C@@H](Cc2c[nH]c3ccccc23)C(=O)N[C@@H](CC(C)C)C(=O)N[C@@H](CCC(=O)O)C(=O)N[C@@H](CC(=O)O)C(=O)N[C@@H](CCC(=O)O)C(=O)N2CCC[C@H]2C(=O)N[C@@H](CO)C(=O)N[C@@H](CO)C(=O)NCC(=O)N[C@@H](C)C(=O)N2CCC[C@H]2C(=O)N2CCC[C@H]2C(=O)N2CCC[C@H]2C(=O)N[C@@H](CO)C(N)=O)NC(=O)[C@H](C(C)C)NC(=O)[C@H](Cc2ccccc2)NC(=O)[C@H](CCCCN)NC1=O [Compound A34] (H-YSHGTFTSDYSKYLDK([γGlu-γGlu-AEEA-C20 diacid])KYAEKFVKWLEDEPSSGAPPPS-NH2; lactam 20-24) | 1.26 | > 1000 | – |
| CC(C)C[C@H](NC(=O)[C@H](Cc1ccc(O)cc1)NC(=O)[C@H](CCCCN)NC(=O)[C@H](CO)NC(=O)[C@H](Cc1ccc(O)cc1)NC(=O)[C@H](CC(=O)O)NC(=O)[C@H](CO)NC(=O)[C@@H](NC(=O)[C@H](Cc1ccccc1)NC(=O)[C@@H](NC(=O)CNC(=O)[C@H](Cc1c[nH]cn1)NC(=O)[C@H](CO)NC(=O)[C@@H](N)Cc1ccc(O)cc1)[C@@H](C)O)[C@@H](C)O)C(=O)N[C@@H](CC(=O)O)C(=O)N[C@@H](CCCCNC(=O)CC[C@H](NC(=O)CC[C@H](NC(=O)COCCOCCNC(=O)CCCCCCCCCCCCCCCCCCC(=O)O)C(=O)O)C(=O)O)C(=O)N[C@@H](CCCCN)C(=O)N[C@@H](Cc1ccc(O)cc1)C(=O)N[C@@H](C)C(=O)N[C@H]1CCC(=O)NCCCC[C@@H](C(=O)N[C@@H](Cc2c[nH]c3ccccc23)C(=O)N[C@@H](CC(C)C)C(=O)N[C@@H](CCC(=O)O)C(=O)N[C@@H](CC(=O)O)C(=O)N[C@@H](CCC(=O)O)C(N)=O)NC(=O)[C@H](C(C)C)NC(=O)[C@H](Cc2ccccc2)NC(=O)[C@H](CCCCN)NC1=O [Compound A35] (H-YSHGTFTSDYSKYLDK([γGlu-γGlu-AEEA-C20 diacid])KYAEKFVKWLEDE-NH2; lactam 20-24; N-terminus assumed) | 1.26 | > 1000 | – |
| human amylin: Human amylin, or islet amyloid polypeptide (IAPP), is a 37-residue polypeptide hormone (KCNTATCATQRLANFLVHSSNNFGAILSSTNVGSNTY; Islet amyloid polypeptide; UniProt P10997 34-70, looked up) | – | – | about 13 minutes |
